Measurements as given in patent US20210251991A1, “SUBSTITUTED 2,2'-BIPYRIMIDINYL COMPOUNDS, ANALOGUES THEREOF, AND METHODS USING SAME” (priority 2018, published 2021).

What follows are compounds tested on HBsAg in HepG2.2.15 cells (assay: HBsAg assay: inhibition of HBsAg in HepG2.2.15 cells (chemiluminescence immunoassay of supernatant)). Settings: Hepatitis B virus, HepG2.2.15, 144 h, read-out: sAg EC50, HepG2.2.15 cells, supernatant collected at day 6 after exposure, HBsAg CLIA.
Type: cell-based, hepatitis B virus
Protocol: Inhibition of HBsAg was determined in HepG2.2.15 cells. Cells were maintained in culture medium containing 10% fetal calf serum, […], Glutamine, penicillin/streptomycin. Cells were seeded in 96-well collagen-coated plate at a density of 30,000 cells/well. Serially diluted compounds were added to cells next day at the final DMSO concentration of 0.5%. Cells were incubated with compounds for 2-3 days, after which medium was removed. Fresh medium containing compounds was added to cells for additional 3-4 days. At day 6 after exposure of compounds, supernatant was collected, the HBsAg immunoassay (microplate-based chemiluminescence immunoassay kits, CLIA, Autobio Diagnosics Co., Zhengzhou, China, Catalog #CL0310-2) was used to determine the level of HBsAg according to manufactory instruction. Dose-response curves were generated and the EC50 value (effective concentrations that achieved 50% inhibitory effect) were determined using XLfit software. In addition, cells were seeded at a density of 5,000 cells/well for determination of cell viability in the presence and absence of compounds by using CellTiter-Glo reagent (Promega).

Going from `c1cnc(-c2nccc(N3CC4CC3c3ccccc34)n2)nc1` (stereo not shown) [Example 83, 2-([2,2′-Bipyrimidin]-4-yl)-1,2,3,4-tetrahydro-1,4-methanoisoquinoline] to `c1cnc(-c2ncc(N3CC4CC3c3ccccc34)cn2)nc1` (stereo not shown) [Example 21, 2-([2,2′-Bipyrimidin]-5-yl)-1,2,3,4-tetrahydro-1,4-methanoisoquinoline], the EC50 rises from 5 µM to 27 µM (5.4-fold). The first is the more potent here.

Compared with `CC1CN(c2ccnc(-c3ncccn3)n2)Cc2ccccc21` (stereo not shown) [Example 15, 2-([2,2′-Bipyrimidin]-4-yl)-4-methyl-1,2,3,4-tetrahydroisoquinoline], `CC1CN(c2cnc(-c3ncccn3)nc2)Cc2ccccc21` (stereo not shown) [Example 5, 2-([2,2′-Bipyrimidin]-5-yl)-4-methyl-1,2,3,4-tetrahydroisoquinoline] is 31-fold higher in EC50: 1.1 µM for the first, 34 µM for the second. The first is the more potent here.

Going from `CCC1Cc2ccccc2CN1c1ccnc(-c2ncccn2)n1` (stereo not shown) [Example 8, 2-([2,2′-Bipyrimidin]-4-yl)-3-ethyl-1,2,3,4-tetrahydroisoquinoline] to `c1cnc(-c2nccc(N3CCc4ccccc4C3)n2)nc1` [Example 9, 2-([2,2′-Bipyrimidin]-4-yl)-1,2,3,4-tetrahydroisoquinoline], the EC50 rises from 2.3 µM to 8.5 µM (3.7-fold). The first is the more potent here.

`CCC1c2ccc(F)c(F)c2CCN1c1cnc(C(=O)O)nc1` (stereo not shown) [Example 113, 5-(1-Ethyl-5,6-difluoro-3,4-dihydro-1H-isoquinolin-2-yl)pyrimidine-2-carboxylic Acid] and `CCC1c2ccc(F)c(F)c2CCN1c1cnc(-c2ncccn2)nc1` (stereo not shown) [Example 32, 1-Ethyl-5,6-difluoro-2-(2-pyrimidin-2-ylpyrimidin-5-yl)-3,4-dihydro-1H-isoquinoline] are the same in EC50: 2 µM for the first, 2 µM for the second.

First: CCC1c2cc(OC)c(OC)cc2CN1c1nc(-c2ncccn2)ncc1Cl (stereo not shown) [Example 60, 2-(5-Chloro-[2,2′-bipyrimidin]-4-yl)-1-ethyl-5,6-dimethoxyisoindoline]
Second: COc1cc2c(cc1OC)C1CCC2N1c1nc(-c2ncccn2)ncc1C [Example 88, 6,7-Dimethoxy-9-(5-methyl-[2,2′-bipyrimidin]-4-yl)-1,2,3,4-tetrahydro-1,4-epiminonaphthalene]
The EC50 of the first is 670-fold lower: 0.003 µM for the first, 2 µM for the second. The first is the more potent here.

Going from `Fc1ccc2c(c1F)CCN(c1ccnc(-c3ncccn3)n1)C2` [Example 4, 2-([2,2′-Bipyrimidin]-4-yl)-5,6-difluoro-1,2,3,4-tetrahydroisoquinoline] to `Fc1ccc2c(c1F)CCN(c1cnc(-c3ncccn3)nc1)C2` [Example 3, 2-([2,2′-Bipyrimidin]-5-yl)-5,6-difluoro-1,2,3,4-tetrahydroisoquinoline], the EC50 rises from 0.9 µM to 3.4 µM (3.8-fold).

Compared with `CCC1c2cc(OC)c(OC)cc2CN1c1cnc(C(=O)O)nc1` (stereo not shown) [Example 97, 5-(1-Ethyl-5,6-dimethoxyisoindolin-2-yl)pyrimidine-2-carboxylic Acid], `CCC1c2cc(F)c(OC)cc2CCN1c1cnc(C(N)=O)nc1` (stereo not shown) [Example 118, 5-(1-Ethyl-7-fluoro-6-methoxy-3,4-dihydro-1H-isoquinolin-2-yl)pyrimidine-2-carboxamide] is 9.6-fold lower in EC50: 5 µM for the first, 0.52 µM for the second.

Going from `Cc1cnc(-c2ncccn2)nc1N1C2CCC1c1ccccc12` [Example 85, 9-(5-Methyl-[2,2′-bipyrimidin]-4-yl)-1,2,3,4-tetrahydro-1,4-epiminonaphthalene] to `Fc1cnc(-c2ncccn2)nc1N1CC2CCC1c1ccccc12` (stereo not shown) [Example 80, 10-(5-Fluoro-[2,2′-bipyrimidin]-4-yl)-1,2,3,4-tetrahydro-1,4-(epiminomethano)naphthalene], the EC50 falls from 3 µM to 0.7 µM (4.3-fold). The second is the more potent here.

First: FC(F)(F)c1cccc2c1CN(c1cnc(-c3ncccn3)nc1)C2 [Example 14, 2-([2,2′-Bipyrimidin]-5-yl)-4-(trifluoromethyl)isoindoline]
Second: Fc1cc(F)c2c(c1)CN(c1cnc(-c3ncccn3)nc1)CC2 [Example 1, 2-([2,2′-Bipyrimidin]-5-yl)-5,7-difluoro-1,2,3,4-tetrahydroisoquinoline]
The EC50 of the first is 13-fold higher: 25 µM for the first, 1.9 µM for the second. The second is the more potent here.

Going from `CCC1c2cc(F)c(F)cc2CN1c1nc(-c2ncccn2)ncc1F` (stereo not shown) [Example 51, 1-Ethyl-5,6-difluoro-2-(5-fluoro-[2,2′-bipyrimidin]-4-yl)isoindoline] to `CCC1c2cc(F)c(OC)cc2CCN1c1cnc(-c2ncccn2)nc1` (stereo not shown) [Example 132, 2-(2,2′-Bipyrimidin-5-yl)-1-ethyl-7-fluoro-6-methoxy-1,2,3,4-tetrahydroisoquinoline], the EC50 falls from 0.027 µM to 0.007 µM (3.9-fold).

Compared with `CCC1c2cc(F)c(F)cc2CN1c1ccnc(C(N)=O)n1` (stereo not shown) [Example 121, 4-(1-Ethyl-5,6-difluoroisoindolin-2-yl)pyrimidine-2-carboxamide], `CCC1c2cc(OC)c(F)c(F)c2CCN1c1ccnc(-c2ncccn2)n1` (stereo not shown) [Example 47, 1-Ethyl-5,6-difluoro-7-methoxy-2-(2-pyrimidin-2-ylpyrimidin-4-yl)-3,4-dihydro-1H-isoquinoline] is 38-fold lower in EC50: 18 µM for the first, 0.48 µM for the second.

Going from `CCC1c2ccccc2CN1c1cnc(-c2ncccn2)nc1` (stereo not shown) [Example 19, 2-([2,2′-Bipyrimidin]-5-yl)-1-ethylisoindoline] to `CC1c2ccc(F)c(F)c2CCN1c1cnc(-c2ncccn2)nc1` (stereo not shown) [Example 24, 2-([2,2′-Bipyrimidin]-5-yl)-5,6-difluoro-1-methyl-1,2,3,4-tetrahydroisoquinoline], the EC50 falls from 0.8 µM to 0.34 µM (2.4-fold). The second is the more potent here.

Same assay, conditions: read-out: sAg EC50; HepG2.2.15 cells, supernatant collected at day 6 after exposure, HBsAg CLIA

Going from `CCC1c2cc(F)c(OC)cc2CN1c1cnc(-c2ncccn2)nc1` (single isomer, unassigned) [Example 90, 2-([2,2′-Bipyrimidin]-5-yl)-1-ethyl-6-fluoro-5-methoxyisoindoline] to `CCC1c2cc(F)c(OC)cc2CN1c1nc(-c2ncccn2)ncc1F` (single isomer, unassigned) [Example 71, 1-Ethyl-6-fluoro-2-(5-fluoro-[2,2′-bipyrimidin]-4-yl)-5-methoxyisoindoline], the EC50 falls from 0.26 µM to 0.003 µM (87-fold). The second is the more potent here.

First: CCC1c2cc(F)c(OC)cc2CN1c1nc(-c2ncccn2)ncc1C (single isomer, unassigned) [Example 69, 1-Ethyl-6-fluoro-5-methoxy-2-(5-methyl-[2,2′-bipyrimidin]-4-yl)isoindoline]
Second: CCC1c2cc(F)c(OC)cc2CN1c1nc(-c2ncccn2)ncc1OC (single isomer, unassigned) [Example 74, 1-Ethyl-6-fluoro-5-methoxy-2-(5-methoxy-[2,2′-bipyrimidin]-4-yl)isoindoline]
The EC50 of the first is 7.4-fold higher: 0.059 µM for the first, 0.008 µM for the second.

First: CCC1c2cc(F)c(F)cc2CN1c1ccnc(-c2ncccn2)n1 (single isomer, unassigned) [Example 50, 2-([2,2′-Bipyrimidin]-4-yl)-1-ethyl-5,6-difluoroisoindoline]
Second: CCC1c2cc(F)c(OC)cc2CN1c1ccnc(-c2ncccn2)n1 (single isomer, unassigned) [Example 64, 2-([2,2′-Bipyrimidin]-4-yl)-1-ethyl-6-fluoro-5-methoxyisoindoline]
The EC50 of the first is 33-fold higher: 0.4 µM for the first, 0.012 µM for the second.

First: CCC1c2cc(F)c(OC)cc2CN1c1cnc(C(=O)Nc2ccccn2)nc1 (single isomer, unassigned) [Example 107, 5-(1-Ethyl-6-fluoro-5-methoxyisoindolin-2-yl)-N-(pyridin-2-yl)pyrimidine-2-carboxamide]
Second: CCC1c2cc(F)c(OC)cc2CN1c1cnc(C(=O)O)nc1 (single isomer, unassigned) [Example 99, 5-(1-Ethyl-6-fluoro-5-methoxyisoindolin-2-yl)pyrimidine-2-carboxylic Acid]
The EC50 of the first is 7-fold higher: 49 µM for the first, 7 µM for the second. The second is the more potent here.

Going from `CCC1c2cc(F)c(OC)cc2CN1c1ccnc(C(=O)NC)n1` (single isomer, unassigned) [Example 109, 4-(1-Ethyl-6-fluoro-5-methoxyisoindolin-2-yl)-N-methylpyrimidine-2-carboxamide] to `CCC1c2cc(F)c(OC)cc2CN1c1cnc(C(=O)Nc2ccccn2)nc1` (single isomer, unassigned) [Example 108, 5-(1-Ethyl-6-fluoro-5-methoxyisoindolin-2-yl)-N-(pyridin-2-yl)pyrimidine-2-carboxamide], the EC50 falls from 42 µM to 0.56 µM (75-fold).

First: CCC1c2ccc(F)c(F)c2CCN1c1cnc(-c2ncccn2)nc1 (single isomer, unassigned) [Example 34, 1-Ethyl-5,6-difluoro-2-(2-pyrimidin-2-ylpyrimidin-5-yl)-3,4-dihydro-1H-isoquinoline]
Second: CCCC1c2ccc(F)c(F)c2CCN1c1ccnc(-c2ncccn2)n1 (single isomer, unassigned) [Example 131, 2-([2,2′-Bipyrimidin]-4-yl)-5,6-difluoro-1-propyl-1,2,3,4-tetrahydroisoquinoline]
The EC50 of the first is 12-fold lower: 0.16 µM for the first, 2 µM for the second. The first is the more potent here.

Going from `CCC1c2cc(F)c(F)cc2CN1c1cnc(C(=O)O)nc1` (single isomer, unassigned) [Example 117, 5-(1-Ethyl-5,6-difluoroisoindolin-2-yl)pyrimidine-2-carboxylic Acid] to `CCC1c2cc(F)c(F)cc2CN1c1ccnc(-c2ncccn2)n1` (single isomer, unassigned) [Example 49, 2-([2,2′-Bipyrimidin]-4-yl)-1-ethyl-5,6-difluoroisoindoline], the EC50 falls from 15 µM to 0.044 µM (340-fold). The second is the more potent here.

First: CCC1c2cc(OC)c(OC)cc2CN1c1ccnc(-c2ncccn2)n1 (single isomer, unassigned) [Example 56, 2-([2,2′-Bipyrimidin]-4-yl)-1-ethyl-5,6-dimethoxyisoindoline]
Second: CC1c2ccc(F)c(F)c2CCN1c1ccnc(-c2ncccn2)n1 (single isomer, unassigned) [Example 38, 2-([2,2′-Bipyrimidin]-4-yl)-5,6-difluoro-1-methyl-1,2,3,4-tetrahydroisoquinoline]
The EC50 of the first is 120-fold lower: 0.012 µM for the first, 1.4 µM for the second. The first is the more potent here.
